Reference: US20210380595A1 (ARAXES PHARMA LLC, priority 2018, published 2021)

Target: T1, KRAS G12C 1-169, his-tagged protein, GDP-loaded (Homo sapiens, UniProt P01116, G12C)
T1 construct: KRAS G12C 1-169, his-tagged protein, GDP-loaded
Experiment: Biochemical assay: covalent modification of KRAS G12C measured by mass spectrometry (RapidFire/TOF or Q-Exactive); note: time not given here
Format: binding
Conditions: tested at 32 μM
Method in brief: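 GDP-loaded KRAS G12C 1-169 (his-tagged, 2 μM or 0.5 μM in 20 mM Hepes, 150 mM NaCl, 1 mM MgCl2) reacted with compound at 32 μM or 8 μM final, then quenched with formic acid. Intact-protein LC-MS (RapidFire/TOF or Q-Exactive) with charge-envelope deconvolution; % modification from modified vs unmodified peak intensities.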

**Q.** With C=CC(=O)N1CC2(CCN(c3ccc(F)c(-c4c(C)ccc5[nH]ncc45)c3)C2)C1 [Compound I-99] as the molecule, how does the Bind % read?
**A.** ++ (++ indicates binding activity from 50 to 75%)

**Q.** With C=CC(=O)N1CC2(CCN(c3ccc(OC4CCN(C)CC4)c(-c4c(C)ccc5[nH]ncc45)c3C#N)CC2)C1 [Compound I-100, 6-(2-acryloyl-2,7-diazaspiro[3.5]nonan-7-yl)-2-(5-methyl-1H-indazol-4-yl)-3-((1-methylpiperidin-4-yl)oxy)benzo-nitrile] as the molecule, how does the Bind % read?
**A.** + (+ indicates binding activity greater than 0% and up to 50%)

**Q.** C=CC(=O)N1CC2(CCN(c3ccc(C#N)c(-c4c(C)ccc5[nH]ncc45)c3)C2)C1 [Compound I-101, 4-(2-acryloyl-2,6-diazaspiro[3.4]octan-6-yl)-2-(5-methyl-1H-indazol-4-yl)benzonitrile] was tested. Which Bind % did it give?
**A.** + (+ indicates binding activity greater than 0% and up to 50%)

**Q.** How did the Bind % turn out when C=CC(=O)N1CC2(CCN(c3ccc(F)c(-c4c(C)ccc5[nH]ncc45)c3)CC2)C1 [Compound I-102, 1-(7-(4-fluoro-3-(5-methyl-1H-indazol-4-yl)phenyl)-2,7-diazaspiro[3.5]nonan-2-yl)prop-2-en-1-one] was run?
**A.** + (+ indicates binding activity greater than 0% and up to 50%)

**Q.** How did the Bind % turn out when C=CC(=O)N1CC2(CCN(c3cc(OCCCN(C)C)c(OC)c(-c4c(C)ccc5[nH]ncc45)c3)CC2)C1 [Compound I-103, 1-(7-(3-(3-(dimethylamino)propoxy)-4-methoxy-5-(5-methyl-1H-indazol-4-yl)phenyl)-2,7-diazaspiro[3.5]nonan-2-yl)prop-2-en-1-one] was run?
**A.** ++ (++ indicates binding activity from 50 to 75%)

**Q.** With C=CC(=O)N1CC2(CCN(c3cc(OCCCN(C)C)c(OC)c(-c4c(C)ccc5cnn(C)c45)c3C#N)CC2)C1 [Compound I-104] as the molecule, how does the Bind % read?
**A.** + (+ indicates binding activity greater than 0% and up to 50%)

**Q.** For C=CC(=O)N1CC2(CCN(c3ccc(C#N)c(-c4c(C)ccc5[nH]ncc45)c3)CC2)C1 [Compound I-105, 4-(2-acryloyl-2,7-diazaspiro[3.5]nonan-7-yl)-2-(5-methyl-1H-indazol-4-yl)benzonitrile], which Bind % is on record?
**A.** + (+ indicates binding activity greater than 0% and up to 50%)

**Q.** For C=CC(=O)N1CC2(CCN(c3ccc(F)c(-c4c(C)ccc5[nH]ncc45)c3C#N)CC2)C1 [Compound I-106, 6-(2-acryloyl-2,7-diazaspiro[3.5]nonan-7-yl)-3-fluoro-2-(5-methyl-1H-indazol-4-yl)benzonitrile], which Bind % is on record?
**A.** + (+ indicates binding activity greater than 0% and up to 50%)

**Q.** How did the Bind % turn out when C=CC(=O)N1CC2(CCN(c3cc(OCc4ccccn4)cc(-c4c(C)ccc5[nH]ncc45)c3)CC2)C1 [Compound I-107, 1-(7-(3-(5-methyl-1H-indazol-4-yl)-5-(pyridin-2-ylmethoxy)phenyl)-2,7-diazaspiro[3.5]nonan-2-yl)prop-2-en-1-one] was run?
**A.** + (+ indicates binding activity greater than 0% and up to 50%)

**Q.** C=CC(=O)N1CC2(CCN(c3cc(N4CCOCC4)cc(-c4c(C)ccc5[nH]ncc45)c3C#N)CC2)C1 [Compound I-108, 2-(2-acryloyl-2,7-diazaspiro[3.5]nonan-7-yl)-6-(5-methyl-1H-indazol-4-yl)-4-morpholino-benzonitrile] was tested. Which Bind % did it give?
**A.** + (+ indicates binding activity greater than 0% and up to 50%)

**Q.** With C=CC(=O)N1CC2(CCN(c3ccc(OC4CCN(C)CC4)c(-c4c(C)ccc5cnn(C)c45)c3C#N)CC2)C1 [Compound I-109, 6-(2-acryloyl-2,7-diazaspiro[3.5]nonan-7-yl)-2-(1,6-dimethyl-1H-indazol-7-yl)-3-((1-methylpiperidin-4-yl)oxy)benzo-nitrile] as the molecule, how does the Bind % read?
**A.** + (+ indicates binding activity greater than 0% and up to 50%)

**Q.** With C=CC(=O)N1CC2(CCN(c3ccc(F)c(-c4c(C)ccc5[nH]ncc45)c3C#N)CC2)C1 [Compound I-111, 6-(2-acryloyl-2,7-diazaspiro[3.5]nonan-7-yl)-3-fluoro-2-(5-methyl-1H-indazol-4-yl)benzonitrile] as the molecule, how does the Bind % read?
**A.** + (+ indicates binding activity greater than 0% and up to 50%)

**Q.** How did the Bind % turn out when C=CC(=O)N1CC2(CCN(c3ccc(C(F)(F)F)c(-c4c(C)ccc5[nH]ncc45)c3C#N)CC2)C1 [Compound I-112, 6-(2-acryloyl-2,7-diazaspiro[3.5]nonan-7-yl)-2-(5-methyl-1H-indazol-4-yl)-3-(trifluoromethyl) benzonitrile] was run?
**A.** + (+ indicates binding activity greater than 0% and up to 50%)

**Q.** C=CC(=O)N1CC2(CCN(c3cc(N4CC(N(C)C)C4)c(F)c(-c4c(C)ccc5[nH]ncc45)c3C#N)CC2)C1 [Compound I-114, 6-(2-acryloyl-2,7-diazaspiro[3.5]nonan-7-yl)-4-(3-(dimethylamino)azetidin-1-yl)-3-fluoro-2-(5-methyl-1H-indazol-4-yl)benzonitrile] was tested. Which Bind % did it give?
**A.** + (+ indicates binding activity greater than 0% and up to 50%)

**Q.** For C=CC(=O)N1CC2(CCN(c3ccc(Nc4ccccc4)c(-c4c(C)ccc5[nH]ncc45)c3C#N)CC2)C1 [Compound I-115, 6-(2-acryloyl-2,7-diazaspiro[3.5]nonan-7-yl)-2-(5-methyl-1H-indazol-4-yl)-3-(phenylamino) benzonitrile], which Bind % is on record?
**A.** + (+ indicates binding activity greater than 0% and up to 50%)

**Q.** Which Bind % does the source give for C=CC(=O)N1CC2(CCN(c3cccc(-c4c(C)ccc5[nH]ncc45)c3C#N)CC2)C1 [Compound I-116, 2-(2-acryloyl-2,7-diazaspiro[3.5]nonan-7-yl)-6-(5-methyl-1H-indazol-4-yl)benzonitrile] here?
**A.** + (+ indicates binding activity greater than 0% and up to 50%)

**Q.** Which Bind % does the source give for C=CC(=O)N1CC2(CCN(c3cc(NCc4ccccn4)c(F)c(-c4c(C)ccc5[nH]ncc45)c3C#N)CC2)C1 [Compound I-117, 6-(2-acryloyl-2,7-diazaspiro[3.5]nonan-7-yl)-3-fluoro-2-(5-methyl-1H-indazol-4-yl)-4-((pyridin-2-ylmethyl)amino) benzonitrile] here?
**A.** ++ (++ indicates binding activity from 50 to 75%)

**Q.** How did the Bind % turn out when C=CC(=O)N1CC2(CCN(c3ccc(F)c(-c4c(C)ccc5[nH]ncc45)c3Cl)CC2)C1 [Compound I-118, 1-(7-(2-chloro-4-fluoro-3-(5-methyl-1H-indazol-4-yl)phenyl)-2,7-diazaspiro[3.5]nonan-2-yl)prop-2-en-1-one] was run?
**A.** + (+ indicates binding activity greater than 0% and up to 50%)

Same assay, conditions: tested at a concentration of 8 μM

**Q.** For C=CC(=O)N1CC2(CCN(c3ccc(Cl)c(-c4c(C)ccc5[nH]ncc45)c3C#N)C2)C1 [Compound I-98, 6-(2-acryloyl-2,6-diazaspiro[3.4]octan-6-yl)-3-chloro-2-(5-methyl-1H-indazol-4-yl)benzonitrile], which Bind % is on record?
**A.** ++ (++ indicates binding activity from 50 to 75%)

**Q.** C=CC(=O)N1CC2(C1)CN(c1ccc(F)c(-c3c(C)ccc4[nH]ncc34)c1C#N)C2 [Compound I-110, 6-(6-acryloyl-2,6-diazaspiro[3.3]heptan-2-yl)-3-fluoro-2-(5-methyl-1H-indazol-4-yl)benzonitrile] was tested. Which Bind % did it give?
**A.** + (+ indicates binding activity greater than 0% and up to 50%)

**Q.** C=CC(=O)N1CC2(CCN(c3cc(OCCCN(C)C)c(F)c(-c4c(C)ccc5[nH]ncc45)c3C#N)CC2)C1 [Compound I-113, 6-(2-acryloyl-2,7-diazaspiro[3.5]nonan-7-yl)-4-(3-(dimethylamino)propoxy)-3-fluoro-2-(5-methyl-1H-indazol-4-yl)benzonitrile] was tested. Which Bind % did it give?
**A.** + (+ indicates binding activity greater than 0% and up to 50%)
